Results taken from PubChem BioAssay (NCI).
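GI50 = concentration required for 50% inhibition of growth. TGI marks complete inhibition of growth.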

Legend:
Assay in all cases: NCI-60 cell line screen, 384-well format
OVCAR-3 ovarian = system: OVCAR-3 ovarian
IGROV1 ovarian = system: IGROV1 ovarian
CAKI-1 renal = system: CAKI-1 renal
SR leukemia = system: SR leukemia
SNB-19 CNS = system: SNB-19 CNS
OVCAR-5 ovarian = system: OVCAR-5 ovarian
UACC-257 melanoma = system: UACC-257 melanoma
U251 glioblastoma = system: U251 glioblastoma
BT-549 breast = system: BT-549 breast
MCF7 breast = system: MCF7 breast
NCI-H322M lung = system: NCI-H322M lung
A549 NSCLC = system: A549 NSCLC
A498 renal = system: A498 renal
SF-539 CNS = system: SF-539 CNS
PC-3 prostate = system: PC-3 prostate
MDA-MB-435 melanoma = system: MDA-MB-435 melanoma
UO-31 renal = system: UO-31 renal
T-47D breast = system: T-47D breast
SNB-75 CNS = system: SNB-75 CNS
HCC-2998 colon = system: HCC-2998 colon
786-0 renal = system: 786-0 renal
CCRF-CEM leukemia = system: CCRF-CEM leukemia
COLO 205 colon = system: COLO 205 colon
M14 melanoma = system: M14 melanoma
TK-10 renal = system: TK-10 renal
HOP-92 NSCLC = system: HOP-92 NSCLC
MDA-MB-231 breast = system: MDA-MB-231 breast
HT29 colon = system: HT29 colon
K-562 leukemia = system: K-562 leukemia
UACC-62 melanoma = system: UACC-62 melanoma
HL-60(TB) leukemia = system: HL-60(TB) leukemia
SK-MEL-2 melanoma = system: SK-MEL-2 melanoma
SK-OV-3 ovarian = system: SK-OV-3 ovarian
DU-145 prostate = system: DU-145 prostate
HOP-62 NSCLC = system: HOP-62 NSCLC
SN12C renal = system: SN12C renal
NCI-H460 NSCLC = system: NCI-H460 NSCLC
SF-295 CNS = system: SF-295 CNS
OVCAR-4 ovarian = system: OVCAR-4 ovarian
LOX IMVI melanoma = system: LOX IMVI melanoma
MDA-MB-468 breast = system: MDA-MB-468 breast
ACHN renal = system: ACHN renal
KM12 colon = system: KM12 colon
NCI-H226 lung = system: NCI-H226 lung
NCI-H522 lung = system: NCI-H522 lung
MOLT-4 leukemia = system: MOLT-4 leukemia
SW-620 colon = system: SW-620 colon
SK-MEL-28 melanoma = system: SK-MEL-28 melanoma
HCT-15 colon = system: HCT-15 colon
SK-MEL-5 melanoma = system: SK-MEL-5 melanoma
OVCAR-8 ovarian = system: OVCAR-8 ovarian
HS 578T breast = system: HS 578T breast
NCI-H23 lung = system: NCI-H23 lung
RPMI-8226 leukemia = system: RPMI-8226 leukemia
EKVX NSCLC = system: EKVX NSCLC
SF-268 CNS = system: SF-268 CNS
NCI/ADR-RES ovarian = system: NCI/ADR-RES ovarian
HCT-116 colon = system: HCT-116 colon
MALME-3M melanoma = system: MALME-3M melanoma

SMILES: CO[C@H]1C[C@@H]2CC[C@@H](C)[C@@](O)(O2)C(=O)C(=O)N2CCCC[C@H]2C(=O)O[C@H]([C@H](C)C[C@@H]2CC[C@@H](OCCO)[C@H](OC)C2)CC(=O)[C@H](C)C=C(C)[C@@H](O)[C@@H](OC)C(=O)[C@H](C)C[C@H](C)/C=C/C=C/C=C1C
- GI50 (OVCAR-3 ovarian): 4.68 µM
- TGI (OVCAR-3 ovarian): 21.8 µM
- GI50 (IGROV1 ovarian): < 0.01 µM
- TGI (IGROV1 ovarian): 11.2 µM
- GI50 (CAKI-1 renal): 5.67 µM
- TGI (CAKI-1 renal): 21.4 µM
- GI50 (SR leukemia): < 0.01 µM
- TGI (SR leukemia): 1.3 µM
- GI50 (SNB-19 CNS): 12.8 µM
- TGI (SNB-19 CNS): 25.5 µM
- GI50 (OVCAR-5 ovarian): 15.2 µM
- TGI (OVCAR-5 ovarian): 29.1 µM
- GI50 (UACC-257 melanoma): 16.5 µM
- TGI (UACC-257 melanoma): 30.1 µM
- GI50 (U251 glioblastoma): 5.77 µM
- TGI (U251 glioblastoma): 21.1 µM
- TGI (BT-549 breast): 15.6 µM
- GI50 (MCF7 breast): < 0.0154 µM
- TGI (MCF7 breast): 12.9 µM
- GI50 (NCI-H322M lung): 6.97 µM
- TGI (NCI-H322M lung): 22.1 µM
- TGI (A549 NSCLC): 20 µM
- GI50 (A498 renal): < 0.0276 µM
- TGI (A498 renal): 17.4 µM
- GI50 (SF-539 CNS): 3.06 µM
- TGI (SF-539 CNS): 19.7 µM
- GI50 (PC-3 prostate): 0.549 µM
- TGI (PC-3 prostate): 17.7 µM
- GI50 (MDA-MB-435 melanoma): 16.2 µM
- TGI (MDA-MB-435 melanoma): 29.9 µM
- GI50 (UO-31 renal): < 0.01 µM
- TGI (T-47D breast): 16.2 µM
- GI50 (SNB-75 CNS): 0.124 µM
- TGI (SNB-75 CNS): 4.55 µM
- GI50 (HCC-2998 colon): 7.55 µM
- TGI (HCC-2998 colon): 22.9 µM
- GI50 ([…]-0 renal): 0.777 µM
- TGI (786-0 renal): 21.1 µM
- GI50 (CCRF-CEM leukemia): < 0.01 µM
- TGI (CCRF-CEM leukemia): 2.84 µM
- GI50 (COLO 205 colon): 14.6 µM
- TGI (COLO 205 colon): 27.7 µM
- GI50 (M14 melanoma): 12.1 µM
- TGI (M14 melanoma): 24.5 µM
- GI50 (TK-10 renal): 13.6 µM
- TGI (TK-10 renal): 31 µM
- GI50 (HOP-92 NSCLC): 11.2 µM
- TGI (HOP-92 NSCLC): 23.4 µM
- GI50 (MDA-MB-231 breast): 12.5 µM
- TGI (MDA-MB-231 breast): 25.1 µM
- GI50 (HT29 colon): 11.5 µM
- TGI (HT29 colon): 23.7 µM
- GI50 (K-562 leukemia): 2.04 µM
- TGI (K-562 leukemia): 15.3 µM
- GI50 (UACC-62 melanoma): 6.61 µM
- TGI (UACC-62 melanoma): 14.9 µM
- GI50 (HL-60(TB) leukemia): 2.16 µM
- TGI (HL-60(TB) leukemia): 6.09 µM
- GI50 (SK-MEL-2 melanoma): 14.2 µM
- TGI (SK-MEL-2 melanoma): 27.2 µM
- GI50 (SK-OV-3 ovarian): 12.1 µM
- TGI (SK-OV-3 ovarian): 25.4 µM
- GI50 (DU-145 prostate): 7.21 µM
- TGI (DU-145 prostate): 23.4 µM
- GI50 (HOP-62 NSCLC): 0.548 µM
- TGI (HOP-62 NSCLC): 20.7 µM
- GI50 (SN12C renal): 11.7 µM
- TGI (SN12C renal): 24.2 µM
- GI50 (NCI-H460 NSCLC): 0.377 µM
- TGI (NCI-H460 NSCLC): 18.7 µM
- TGI (SF-295 CNS): 16 µM
- GI50 (OVCAR-4 ovarian): 10.8 µM
- TGI (OVCAR-4 ovarian): 24.1 µM
- GI50 (LOX IMVI melanoma): 6.02 µM
- TGI (LOX IMVI melanoma): 20.9 µM
- GI50 (MDA-MB-468 breast): < 0.01 µM
- TGI (MDA-MB-468 breast): 8.91 µM
- GI50 (ACHN renal): 2.93 µM
- TGI (ACHN renal): 22.2 µM
- GI50 (KM12 colon): 11.2 µM
- TGI (KM12 colon): 23.3 µM
- GI50 (NCI-H226 lung): 9.49 µM
- TGI (NCI-H226 lung): 21.8 µM
- GI50 (NCI-H522 lung): 9.37 µM
- TGI (NCI-H522 lung): 22 µM
- GI50 (MOLT-4 leukemia): < 0.01 µM
- TGI (MOLT-4 leukemia): 2.24 µM
- GI50 (SW-620 colon): 11.8 µM
- TGI (SW-620 colon): 16.4 µM
- GI50 (SK-MEL-28 melanoma): 11.9 µM
- TGI (SK-MEL-28 melanoma): 16.5 µM
- GI50 (HCT-15 colon): 1.43 µM
- TGI (HCT-15 colon): 18.7 µM
- GI50 (SK-MEL-5 melanoma): 0.414 µM
- TGI (SK-MEL-5 melanoma): 3.78 µM
- GI50 (OVCAR-8 ovarian): 10.9 µM
- TGI (OVCAR-8 ovarian): 22.8 µM
- TGI (HS 578T breast): 7.24 µM
- GI50 (NCI-H23 lung): 11.6 µM
- TGI (NCI-H23 lung): 23.9 µM
- GI50 (RPMI-8226 leukemia): < 0.01 µM
- TGI (RPMI-8226 leukemia): 1.87 µM
- GI50 (EKVX NSCLC): 1.79 µM
- TGI (EKVX NSCLC): 20.4 µM
- GI50 (SF-268 CNS): 12.6 µM
- TGI (SF-268 CNS): 25.3 µM
- GI50 (NCI/ADR-RES ovarian): 13.5 µM
- TGI (NCI/ADR-RES ovarian): 28.7 µM
- GI50 (HCT-116 colon): 8.33 µM
- TGI (HCT-116 colon): 21.9 µM
- GI50 (MALME-3M melanoma): < 0.01 µM
- TGI (MALME-3M melanoma): 14.6 µM
